Laboratory results taken from ChEMBL document CHEMBL4364250, “Improvement of Asparagine Ethylenediamines as Anti-malarial Plasmodium-Selective Proteasome Inhibitors” (J Med Chem, 2019).
Calls of active or inactive are those of the source. The rule behind the calls is not given here.

Key:
[1] = (§1) Inhibition of Plasmodium falciparum 20S proteasome beta5 subunit using suc-LLVY-AMC as substrate in presence of beta2 inhibitor WLW-VS
Plasmodium falciparum [2] = experiment: as §1
[3] = target: T1, Proteasome Macropain subunit MB1 (Homo sapiens, UniProt P28074); experiment: Inhibition of human beta5 20S constitutive proteasome using suc-LLVY-AMC as substrate; conditions: for inhibition (INH): human
T1 sequence (P28074 whole entry): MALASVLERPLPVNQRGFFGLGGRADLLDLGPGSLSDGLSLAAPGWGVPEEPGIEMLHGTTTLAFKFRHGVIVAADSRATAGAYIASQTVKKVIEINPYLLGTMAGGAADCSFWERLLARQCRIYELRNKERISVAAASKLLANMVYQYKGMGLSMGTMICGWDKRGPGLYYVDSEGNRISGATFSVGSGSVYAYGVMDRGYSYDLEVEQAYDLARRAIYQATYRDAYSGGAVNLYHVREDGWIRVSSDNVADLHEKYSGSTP

[4] = target: T2, Proteasome subunit beta type-8 (Homo sapiens, UniProt P28062); experiment: Inhibition of human beta5 20S immunoproteasome using Ac-ANW-AMC as substrate; conditions: for inhibition (INH): human
T2 sequence (P28062 whole entry): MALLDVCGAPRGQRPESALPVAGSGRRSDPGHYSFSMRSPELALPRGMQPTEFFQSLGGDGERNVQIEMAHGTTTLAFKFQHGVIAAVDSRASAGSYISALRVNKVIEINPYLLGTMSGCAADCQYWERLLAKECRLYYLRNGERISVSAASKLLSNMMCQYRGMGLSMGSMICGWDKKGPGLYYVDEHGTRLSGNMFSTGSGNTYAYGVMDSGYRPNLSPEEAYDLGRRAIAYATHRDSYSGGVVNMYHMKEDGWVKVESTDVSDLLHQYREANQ

Plasmodium falciparum [5] = experiment: Antimalarial activity against erythrocytic stage of Plasmodium falciparum 3D7 measured after 72 hrs by SYBR green dye based fluorescence assay; assay type: functional, organism-based; conditions: 3D7, 72 h
[6] = test system: beta5 subunit of human 20S constitutive proteasome; experiment: Selectivity ratio of IC50 for human beta5 20S constitutive proteasome to IC50 for Plasmodium falciparum 20S proteasome beta5 subunit; assay type: toxicity; conditions: read-out: Ratio IC50
[7] = test system: beta5 subunit of human 20S immunoproteasome; experiment: Selectivity ratio of IC50 for human beta5 20S immunoproteasome to IC50 for Plasmodium falciparum 20S proteasome beta5 subunit; assay type: toxicity; conditions: read-out: Ratio IC50
HepG2 = experiment: Cytotoxicity against human HepG2 cells; assay type: cell-based
Karpas-1106P = experiment: Cytotoxicity against human KARPAS1106P cells; assay type: cell-based
Plasmodium falciparum [8] = experiment: Inhibition of MV151 binding to Plasmodium falciparum 20S proteasome beta2 subunit preincubated for 1 hr followed by MV151 addition and measured after 1 hr by fluorescence assay
Plasmodium falciparum [9] = experiment: Inhibition of MV151 binding to Plasmodium falciparum 20S proteasome beta1 subunit preincubated for 1 hr followed by MV151 addition and measured after 1 hr by fluorescence assay
[10] = Permeability of the compound at pH 7.4 by PAMPA; assay type: ADME; conditions: read-out: permeability
[11] = Clearance in human liver microsomes; assay type: ADME, Microsome; conditions: read-out: CLH
[12] = Clearance in rat liver microsomes; assay type: ADME, Microsome; conditions: read-out: CLH
[13] = Clearance in mouse liver microsomes; assay type: ADME, Microsome; conditions: read-out: CLH
Plasmodium falciparum [14] = experiment: Antimalarial activity against erythrocytic stage of Plasmodium falciparum Dd2 measured after 72 hrs by SYBR green dye based fluorescence assay; assay type: functional, organism-based; conditions: Dd2, 72 h
Plasmodium falciparum [15] = experiment: Antimalarial activity against erythrocytic stage of Plasmodium falciparum Dd2 harboring 20S beta2 proteasome A117D mutant measured after 72 hrs by SYBR green dye based fluorescence assay; assay type: functional, organism-based; conditions: Dd2, 72 h
Plasmodium falciparum [16] = experiment: Antimalarial activity against erythrocytic stage of Plasmodium falciparum Dd2 harboring 20S beta5 proteasome A49S mutant measured after 72 hrs by SYBR green dye based fluorescence assay; assay type: functional, organism-based; conditions: Dd2, 72 h
Plasmodium falciparum [17] = experiment: Resistance index, ratio of EC50 for erythrocytic stage of Plasmodium falciparum Dd2 harboring 20S beta5 proteasome A49S mutant to EC50 erythrocytic stage of Plasmodium falciparum Dd2; assay type: functional
Plasmodium falciparum [18] = experiment: Resistance index, ratio of EC50 for erythrocytic stage of Plasmodium falciparum Dd2 harboring 20S beta6 proteasome A117D mutant to EC50 erythrocytic stage of Plasmodium falciparum Dd2
Plasmodium falciparum [19] = experiment: Inhibition of MV151 binding to Plasmodium falciparum 20S proteasome beta5 subunit preincubated for 1 hr followed by MV151 addition and measured after 1 hr by fluorescence assay
Plasmodium falciparum [20] = experiment: microbe, parasite or virus in culture; conditions: 72 h
Description: Antimalarial activity against Plasmodium falciparum clinical isolate measured after 72 hrs by SYBR green dye based fluorescence assay

Plasmodium falciparum [21] = experiment: Antimalarial activity against erythrocytic stage of Plasmodium falciparum Dd2 measured after 72 hrs in presence of 20S beta2 inhibitor WLW-VS by SYBR green dye based fluorescence assay; assay type: functional, organism-based
Plasmodium falciparum [22] = experiment: Inhibition of MV151 binding to Plasmodium falciparum 20S proteasome beta5 subunit A49S mutant at 1.2 to 33.3 uM preincubated for 1 hr followed by MV151 addition and measured after 1 hr by fluorescence assay

SMILES | IC50 [1] | inhibition (Plasmodium falciparum [2]) | IC50 [3] | inhibition (INH) [3] | IC50 [4] | inhibition (INH) [4] | EC50 (Plasmodium falciparum [5]) | selectivity ratio [6] | selectivity ratio [7] | EC50 (HepG2) | EC50 (Karpas-1106P) | Papp [10] | microsomal CLint [11] | microsomal CLint [12] | microsomal CLint [13] | EC50 (Plasmodium falciparum [14]) | EC50 (Plasmodium falciparum [15]) | EC50 (Plasmodium falciparum [16]) | Ratio EC50 (Plasmodium falciparum [17]) | Ratio EC50 (Plasmodium falciparum [18]) | other results
Cc1ccc(S(=O)(=O)N[C@@H](CC(=O)NC(C)(C)C)C(=O)NCCNC(=O)c2cc(C)ccc2F)cc1 | 20.7 nM | Dose-dependent effect | 12000 nM | Dose-dependent effect | 384 nM | Dose-dependent effect | 13.9 nM | 581 | 19 | > 11000 nM | > 11100 nM | – | – | – | – | – | – | – | – | – | –
Cc1ccc(S(=O)(=O)N[C@@H](CC(=O)NC(C)(C)C)C(=O)NCCNC(=O)c2ccccc2F)cc1 | 32 nM | – | 1140 nM | – | 169 nM | – | 7.5 nM | 36 | 5.3 | > 11000 nM | > 11100 nM | 10.5 ×10⁻⁶ cm/s | 141 µL/min/mg | 124 µL/min/mg | 141 µL/min/mg | – | – | – | – | – | inhibition (Plasmodium falciparum [8]): inactive; inhibition (Plasmodium falciparum [9]): inactive
Cc1ccc(S(=O)(=O)N[C@@H](CC(=O)NC(C)(C)C)C(=O)NCCNC(=O)c2cc(-c3ccccc3F)ccc2F)cc1 | – | – | 110 nM | – | 4 nM | – | 1.6 nM | – | – | – | – | – | – | – | – | – | – | – | – | – | inhibition (Plasmodium falciparum [8]): inactive; inhibition (Plasmodium falciparum [9]): inactive
COc1cccc(C(=O)NCCNC(=O)[C@H](CC(=O)NC(C)(C)C)NS(=O)(=O)c2ccc(C)cc2)c1 | 8.9 nM | – | 506 nM | – | 38 nM | – | 2.3 nM | 57 | 4.3 | > 11000 nM | > 11100 nM | 15.9 ×10⁻⁶ cm/s | 202 µL/min/mg | 115 µL/min/mg | 142 µL/min/mg | 2.5 nM | 63.4 nM | 252 nM | 101 | 25 | –
C#Cc1cccc(C(=O)NCCNC(=O)[C@H](CC(=O)NC(C)(C)C)NS(=O)(=O)c2ccc(C)cc2)c1 | 4.7 nM | Dose-dependent effect | 430 nM | Dose-dependent effect | 112 nM | Dose-dependent effect | 3.1 nM | 91 | 24 | > 11000 nM | > 11100 nM | 20.3 ×10⁻⁶ cm/s | 61 µL/min/mg | 61 µL/min/mg | 97 µL/min/mg | 3.3 nM | 61.9 nM | 502 nM | 152 | 19 | inhibition (Plasmodium falciparum [19]): Dose-dependent effect; EC50 (Plasmodium falciparum [20]): 7.1 nM
Cc1ccc(S(=O)(=O)N[C@@H](CC(=O)NC(C)(C)C)C(=O)NCCNC(=O)c2ccccc2)cc1 | 20.8 nM | – | 1410 nM | – | 100 nM | – | 8.4 nM | 68 | 4.8 | > 11000 nM | > 11100 nM | 13.7 ×10⁻⁶ cm/s | 122 µL/min/mg | 66 µL/min/mg | 64 µL/min/mg | 7.7 nM | 111 nM | 135 nM | 17 | 14 | Activity (Plasmodium falciparum [21]): Active; inhibition (Plasmodium falciparum [22]): Active
